The record followed here is patent US10221173B2, “Chemical compounds” (AstraZeneca AB, priority 2017, dated 2019).

Data set [1] can be described thus: Human plasma protein binding (equilibrium dialysis). It is filed as in vitro ADME.
Protocol: The automated equilibrium dialysis assay in human plasma uses the RED (Rapid Equilibrium Dialysis) Device and sample handling. The assay generally runs over two to three days including delivery of results. After dialysis for 18 hours, plasma and buffer samples are prepared for analysis by liquid chromatography and mass spectrometry. Samples are generally tested in singlicates and quantified by LC/MSMS by using a 7-point calibration curve in plasma. The compounds are pooled together in plasma pools up to 10 compounds. Three reference compounds are used in each run, Propranolol, Metoprolol and Warfarin. Warfarin is used as a control in each pool and Propranolol and Metoprolol are placed randomly in each run. An in-house Excel macro is used for preparation of files for the robot and the mass spectrometer and is also used for the calculations of fraction unbound (fu %) in plasma.
Data set [2] in a line: Log D (shake flask, 1-octanol/aqueous buffer). The data set is classed as physicochemical. The conditions noted are these: for logD: 1-octanol/aqueous buffer, pH 7.4, pH 7.4.
A short description of data set [3]: Thermodynamic solubility (shake-flask). The data set is classed as physicochemical. To be noted: phosphate buffer pH 7.4, 24 hours.
The target in data set [4] is recombinant human Estrogen Receptor alpha ligand binding domain (ER alpha-LBD (GST)) (Homo sapiens (Human), UniProt P03372). Description: ERα binding assay (LanthaScreen TR-FRET competition). On the technique in general: Time-resolved FRET reads energy transfer from a long-lived donor to a nearby acceptor.
Data set [5] concerns the target Estrogen Receptor (ERα) in MCF-7 cells (Homo sapiens (Human), UniProt P03372). Nature of the data set: MCF-7 ER down-regulation assay (immuno-fluorescence). It is filed as cell-based.
Protocol: The ability of compounds to down-regulate Estrogen Receptor (ER) numbers was assessed in a cell based immuno-fluorescence assay using the MCF-7 human ductal carcinoma breast cell line. MCF-7 cells were revived directly from a cryovial (approx 5×10^6 cells) in Assay Medium (phenol red free Dulbecco's Modified Eagle's medium (DMEM); Sigma D5921) containing 2 mM L-Glutamine and 5% (v/v) Charcoal/Dextran treated foetal calf serum. Cells were syringed once using a sterile 18G×1.5 inch (1.2×40 mm) broad gauge needle and cell density was measured using a Coulter Counter (Beckman). […] Following cell seeding, plates were incubated overnight at 37° C., 5% CO2 (Liconic carousel incubator). Test data was generated using the LabCyte Echomodel 555 compound reformatter which is part of an automated workcell (Integrated Echo 2 workcell). Compound stock solutions (10 mM) of the test compounds were used to generate a 384 well compound dosing plate (Labcyte P-05525-CV1). […] 40 μL of DMSO added to wells in row P on the source plate allowed for DMSO normalisation across the dose range. To dose the control wells 40 μL of DMSO was added to row O1 and 40 μL of 100 μM fulvestrant in DMSO was added to row O3 on the compound source plate.
The Echo uses acoustic technology to perform direct microplate-to-microplate transfers of DMSO compound solutions to assay plates. The system can be programmed to transfer volumes as low as 2.5 nL in multiple increments between microplates and in so doing generates a serial dilution of compound in the assay plate which is then back-filled to normalise the DMSO concentration across the dilution range. […] The fixing method described above was carried out on the Integrated Echo 2 workcell. Immunostaining was performed using an automated AutoElisa workcell. The PBS/Proclin was aspirated from all wells and the cells permeabilised with 40 μL PBS containing 0.5% Tween™ 20 (v/v) for 1 hour at room temperature. The plates were washed three times in 250 μL of PBS/0.05% (v/v) Tween 20 with Proclin (PBST with a Biocide preservative) and then 20 μL of ERα (SP1) Rabbit monoclonal antibody (Thermofisher) 1:1000 in PBS/Tween™/3% (w/v) Bovine Serum Albumin was added. The plates were incubated overnight at 4° C. (Liconic carousel incubator) and then washed three times in 250 μL of PBS/0.05% (v/v) Tween™ 20 with Proclin (PBST). The plates were then incubated with 20 μL/well of a goat anti-rabbit IgG AlexaFluor 594 or goat anti-rabbit AlexaFluor 488 antibody (Molecular Probes) with Hoechst at 1:5000 in PBS/Tween™/3% (w/v) Bovine Serum Albumin for 1 hour at room temperature. The plates were then washed three times in 250 μL of PBS/0.05% (v/v) Tween™ 20 with Proclin (PBST with a Biocide preservative). 20 μL of PBS was added to each well and the plates covered with a black plate seal and stored at 4° C. before being read. […] The mean total intensity was normalized for cell number giving the total intensity per cell. The data was exported into a suitable software package (such as Origin) to perform curve fitting analysis.
Setting [6] is: aqueous phosphate buffer, 25 °C, pH 7.4, aqueous buffer, thermodynamic from solid.

In brackets after ≈: the same amount, converted by molar mass.

recombinant human Estrogen Receptor alpha ligand binding domain (ER alpha-LBD (GST)), sequence (P03372 307-554): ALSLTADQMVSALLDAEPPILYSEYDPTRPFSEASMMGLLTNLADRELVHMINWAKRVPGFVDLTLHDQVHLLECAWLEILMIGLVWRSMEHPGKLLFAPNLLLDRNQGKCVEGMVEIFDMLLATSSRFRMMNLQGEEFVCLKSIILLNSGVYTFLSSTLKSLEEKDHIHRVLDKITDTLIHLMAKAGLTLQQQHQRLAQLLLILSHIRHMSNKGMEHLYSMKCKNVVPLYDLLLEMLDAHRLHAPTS
Estrogen Receptor (ERα) in MCF-7 cells, sequence (P03372 whole entry): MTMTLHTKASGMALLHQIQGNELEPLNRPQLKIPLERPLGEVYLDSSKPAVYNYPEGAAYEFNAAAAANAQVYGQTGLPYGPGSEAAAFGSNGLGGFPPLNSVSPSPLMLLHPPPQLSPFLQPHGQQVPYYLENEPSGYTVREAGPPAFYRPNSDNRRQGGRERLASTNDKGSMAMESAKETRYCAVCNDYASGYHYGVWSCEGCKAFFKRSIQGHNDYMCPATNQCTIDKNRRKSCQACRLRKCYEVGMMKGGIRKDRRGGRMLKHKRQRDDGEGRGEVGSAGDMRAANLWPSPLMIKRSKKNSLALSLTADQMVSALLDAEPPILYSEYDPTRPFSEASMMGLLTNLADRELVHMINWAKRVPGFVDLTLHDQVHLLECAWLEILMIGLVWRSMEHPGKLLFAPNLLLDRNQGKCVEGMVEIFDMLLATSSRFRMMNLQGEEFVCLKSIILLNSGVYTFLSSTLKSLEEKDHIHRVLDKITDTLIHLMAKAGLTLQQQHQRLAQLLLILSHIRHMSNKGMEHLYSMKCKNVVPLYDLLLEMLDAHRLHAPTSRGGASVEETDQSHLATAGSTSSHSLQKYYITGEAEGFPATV

The logD is the decadic logarithm of the distribution of all forms, ionised or not, between an organic phase and buffer at a given pH. A high value points to a more lipophilic compound. The term solubility denotes the concentration that dissolves in the medium under given conditions. By IC50 is commonly meant the point on the concentration scale where inhibition reaches its midpoint. Regarding `CC(CN1[C@H](c2c(Cl)ccc(OCCNCCCF)c2Cl)c2[nH]c3ccc(F)cc3c2C[C@H]1C)C(=O)O` (single isomer, unassigned) [Example 129], the “Human plasma protein binding (% free)” value in data set [1] is reported as 23 % free. Besides, in data set [2], the pH-dependent lipophilicity (logD) worked out at 1.5. In data set [3] (setting [6]), the solubility at 24 h worked out at 953 µM (≈ 528 µg/mL). Besides, the IC50 was determined as 8.9 nM in data set [4] and 2.6 nM in data set [5].
In the case of `CC(CN1[C@H](c2c(Cl)ccc(OCCNCCCF)c2Cl)c2[nH]c3ccc(F)cc3c2C[C@H]1C)C(=O)O` (single isomer, unassigned) [Example 130], the “Human plasma protein binding (% free)” value in data set [1] turned out to be 7.8 % free. The “LogD pH 7.4” value in data set [2] (pH 7.4) was 1.5. The same molecule returned a solubility at 24 h in data set [3] (25° C.) of 854 µM (≈ 474 µg/mL). Besides, the values for the concentration for half-maximal inhibition (IC50) in data set [4] and in data set [5] were 1.8 nM and 1.3 nM, respectively.
`C[C@@H]1Cc2c([nH]c3ccccc23)[C@@H](c2cccc(N(C)CCNCCCF)c2)N1CC1(F)COC1` [Example 3, N-1-(3-((1R,3R)-2-((3-fluorooxetan-3-yl)methyl)-3-methyl-2,3,4,9-tetrahydro-1H-pyrido[3,4-b]indol-1-yl)phenyl)-N-2-(3-fluoropropyl)-N-1-methylethane-1,2-diamine] returned a solubility at 24 h in data set [3] (setting [6]) of 712 µM (≈ 344 µg/mL).
Molecule `COc1c(OCCNCCCF)cccc1[C@@H]1c2[nH]c3ccccc3c2C[C@@H](C)N1CC1(F)COC1` [Example 5, 3-fluoro-N-(2-(3-((1R,3R)-2-((3-fluorooxetan-3-yl)methyl)-3-methyl-2,3,4,9-tetrahydro-1H-pyrido[3,4-b]indol-1-yl)-2-methoxyphenoxy)ethyl)propan-1-amine] returned a solubility at 24 h in data set [3] (setting [6]) of 357 µM (≈ 178 µg/mL). In addition, the concentration for half-maximal inhibition (IC50) in data set [4] stood at 45 nM; in data set [5] it was 25 nM.
As to `Cc1ccc(OCCNCCCF)cc1[C@@H]1c2[nH]c3ccccc3c2C[C@@H](C)N1CC(F)(F)F` [Example 17, 3-fluoro-N-(2-(4-methyl-3-((1R,3R)-3-methyl-2-(2,2,2-trifluoroethyl)-2,3,4,9-tetrahydro-1H-pyrido[3,4-b]indol-1-yl)phenoxy)ethyl)propan-1-amine], the solubility at 24 h in data set [3] (setting [6]) worked out at 68 µM (≈ 32.5 µg/mL).
Still for that read-out and setting: the value for `Cc1cc(OCCNCCCF)cc([C@@H]2c3[nH]c4ccccc4c3C[C@@H](C)N2CC(F)(F)F)c1` [Example 18, 3-fluoro-N-(2-(3-methyl-5-((1R,3R)-3-methyl-2-(2,2,2-trifluoroethyl)-2,3,4,9-tetrahydro-1H-pyrido[3,4-b]indol-1-yl)phenoxy)ethyl)propan-1-amine] was 27 µM (≈ 12.9 µg/mL); that for `Cc1ccc([C@@H]2c3[nH]c4ccccc4c3C[C@@H](C)N2CC(F)(F)F)cc1OCCNCCCF` [Example 19, 3-fluoro-N-(2-(2-methyl-5-((1R,3R)-3-methyl-2-(2,2,2-trifluoroethyl)-2,3,4,9-tetrahydro-1H-pyrido[3,4-b]indol-1-yl)phenoxy)ethyl)propan-1-amine] was 5 µM (≈ 2.39 µg/mL).
The same measure, in the same setting: the value for `C[C@@H]1Cc2c([nH]c3ccccc23)[C@@H](c2cccc(OCCNCCCF)c2F)N1CC(F)(F)F` [Example 24, 3-fluoro-N-(2-(2-fluoro-3-((1R,3R)-3-methyl-2-(2,2,2-trifluoroethyl)-2,3,4,9-tetrahydro-1H-pyrido[3,4-b]indol-1-yl)phenoxy)ethyl)propan-1-amine] was 88 µM (≈ 42.4 µg/mL).
Take `COc1cc(F)c(OCCNCCCF)cc1[C@@H]1c2[nH]c3ccccc3c2C[C@@H](C)N1CC(F)(F)F` [Example 28, 3-fluoro-N-(2-(2-fluoro-4-methoxy-5-((1R,3R)-3-methyl-2-(2,2,2-trifluoroethyl)-2,3,4,9-tetrahydro-1H-pyrido[3,4-b]indol-1-yl)phenoxy)ethyl)propan-1-amine]: in data set [1], the “Human plasma protein binding (% free)” value is on record as 1.2 % free. The molecule further yielded a pH-dependent lipophilicity (logD) in data set [2] of 3.8. The same molecule displayed a solubility at 24 h in data set [3] (setting [6]) of 40 µM (≈ 20.5 µg/mL). Further, the figures for the IC50 in data set [4] and in data set [5] were 2.8 nM and 0.8 nM, respectively.
Molecule `Cc1c(OCCNCCCF)ccc(F)c1[C@@H]1c2[nH]c3ccccc3c2C[C@@H](C)N1CC(F)(F)F` [Example 33, 3-fluoro-N-(2-(4-fluoro-2-methyl-3-((1R,3R)-3-methyl-2-(2,2,2-trifluoroethyl)-2,3,4,9-tetrahydro-1H-pyrido[3,4-b]indol-1-yl)phenoxy)ethyl)propan-1-amine] showed a solubility at 24 h in data set [3] (setting [6]) of 8 µM (≈ 3.96 µg/mL).
For the molecule `Cc1c(OCCNCCCF)cncc1[C@@H]1c2[nH]c3ccccc3c2C[C@@H](C)N1CC(F)(F)F` [Example 38, 3-fluoro-N-(2-((4-methyl-5-((1R,3R)-3-methyl-2-(2,2,2-trifluoroethyl)-2,3,4,9-tetrahydro-1H-pyrido[3,4-b]indol-1-yl)pyridin-3-yl)oxy)ethyl)propan-1-amine], the “Human plasma protein binding (% free)” value in data set [1] turned out to be 0.91 % free. Also, in data set [5], inhibition was half-maximal at 0.19 nM (IC50).
In turn, `Cc1c(OCCNCCCF)ccc(F)c1[C@@H]1c2[nH]c3ccccc3c2C[C@@H](C)N1CC(F)(F)CO` [Example 45, 2,2-difluoro-3-((1R,3R)-1-(6-fluoro-3-(2-((3-fluoropropyl)amino)ethoxy)-2-methylphenyl)-3-methyl-1,3,4,9-tetrahydro-2H-pyrido[3,4-b]indol-2-yl)propan-1-ol] registered a solubility at 24 h in data set [3] (setting [6]) of 227 µM (≈ 115 µg/mL).
The molecule `COc1ccc(OC[C@H](C)NCCCF)cc1[C@@H]1c2[nH]c3ccccc3c2C[C@@H](C)N1CC(F)(F)CO` [Example 49, 2,2-difluoro-3-((1R,3R)-1-(5-((S)-2-((3-fluoropropyl)amino)propoxy)-2-methoxyphenyl)-3-methyl-1,3,4,9-tetrahydro-2H-pyrido[3,4-b]indol-2-yl)propan-1-ol] displayed a logD in data set [2] of 2.8. In data set [3] (setting [6]), this molecule yielded a solubility at 24 h of 335 µM (≈ 174 µg/mL). Also, the figures for the half-maximal inhibitory concentration (IC50) in data set [4] and in data set [5] were 1.2 nM and 0.15 nM, respectively.
As for `COc1ccc(OC[C@@H](C)NCCCF)cc1[C@@H]1c2[nH]c3ccccc3c2C[C@@H](C)N1CC(F)(F)CO` [Example 50, 2,2-difIuoro-3-((1R,3R)-1-(5-((S)-2-((3-fluoropropyl)amino)propoxy)-2-methoxyphenyl)-3-methyl-1,3,4,9-tetrahydro-2H-pyrido[3,4-b]indol-2-yl)propan-1-ol], the “Human plasma protein binding (% free)” value in data set [1] came to 7.1 % free. Moreover, in data set [2], the logD is 2.8. This molecule registered a solubility at 24 h in data set [3] (setting [6]) of 461 µM (≈ 240 µg/mL). Moreover, the concentration for half-maximal inhibition (IC50) in data set [4] was 1 nM; in data set [5], 0.81 nM. For the same molecule, in data set [5] (maximum downregulation), the “% downregulation (in brackets)” value is listed as 81%.
Turning to `C[C@@H]1Cc2c([nH]c3ccccc23)[C@@H](c2cc(F)cc(OCCNCCCF)c2)N1CC(F)(F)F` [Example 73, 3-fluoro-N-(2-(3-fluoro-5-((1R,3R)-3-methyl-2-(2,2,2-trifluoroethyl)-2,3,4,9-tetrahydro-1H-pyrido[3,4-b]indol-1-yl)phenoxy)ethyl)propan-1-amine], in data set [3] (setting [6]), the solubility at 24 h was determined as 7 µM (≈ 3.37 µg/mL).
The same measure, in the same setting: with `C[C@@H]1Cc2c([nH]c3ccccc23)[C@@H](c2ccc(F)c(OCCNCCCF)c2)N1CC(F)(F)F` [Example 74, 3-fluoro-N-(2-(2-fluoro-5-((1R,3R)-3-methyl-2-(2,2,2-trifluoroethyl)-2,3,4,9-tetrahydro-1H-pyrido[3,4-b]indol-1-yl)phenoxy)ethyl)propan-1-amine] the figure was 0.9 µM (≈ 0.433 µg/mL); with `Cc1ccc(OCCNCCCF)c(F)c1[C@@H]1c2[nH]c3ccccc3c2C[C@@H](C)N1CC(F)(F)F` [Example 80, 3-fluoro-N-(2-(2-fluoro-4-methyl-3-((1R,3R)-3-methyl-2-(2,2,2-trifluoroethyl)-2,3,4,9-tetrahydro-1H-pyrido[3,4-b]indol-1-yl)phenoxy)ethyl)propan-1-amine], 13 µM (≈ 6.44 µg/mL).
In data set [2], `C[C@@H]1Cc2c([nH]c3ccccc23)[C@@H](c2cc(OCCNCCCF)ncn2)N1CC(F)(F)F` [Example 113, 3-fluoro-N-(2-((6-((1S,3R)-3-methyl-2-(2,2,2-trifluoroethyl)-2,3,4,9-tetrahydro-1H-pyrido[3,4-b]indol-1-yl)pyrimidin-4-yl)oxy)ethyl)propan-1-amine] returned a logD of 4.1. The solubility at 24 h in data set [3] (setting [6]) was less than 1.6 µM. The half-inhibitory concentration (IC50) is 17 nM in data set [4] and greater than 300 nM in data set [5].
Take `Cc1c(OCCNCCCF)ccc(F)c1[C@@H]1c2[nH]c3ccccc3c2C[C@@H](C)N1CCC(=O)O` [Example 116, 3-((1R,3R)-1-(6-fluoro-3-(2-((3-fluoropropyl)amino)ethoxy)-2-methylphenyl)-3-methyl-1,3,4,9-tetrahydro-2H-pyrido[3,4-b]indol-2-yl)propanoic acid]: the solubility at 24 h in data set [3] (setting [6]) was greater than 1000 µM.
Consider `C[C@@H]1Cc2c([nH]c3ccccc23)[C@@H](c2c(F)ccc(OCCNCCCF)c2Cl)N1CC(C)(C)C(=O)O` [Example 131, 3-((1R,3R)-1-(2-chloro-6-fluoro-3-(2-((3-fluoropropyl)amino)ethoxy)phenyl)-3-methyl-1,3,4,9-tetrahydro-2H-pyrido[3,4-b]indol-2-yl)-2,2-dimethylpropanoic acid], for which the “Human plasma protein binding (% free)” value in data set [1] is reported as 32 % free. In data set [2], this molecule displayed a logD of 1.2. The molecule further yielded a solubility at 24 h in data set [3] (setting [6]) greater than 1000 µM.
As for `Cc1c(N(C)CCN(C)CCCF)ccc(F)c1[C@@H]1c2[nH]c3ccccc3c2C[C@@H](C)N1C[C@H](C)C(=O)O` [Example 147, (S)-3-((1R,3R)-1-(6-fluoro-3-((2-((3-fluoropropyl)(methyl)amino)ethyl)(methyl)amino)-2-methylphenyl)-3-methyl-1,3,4,9-tetrahydro-2H-pyrido[3,4-b]indol-2-yl)-2-methylpropanoic acid], in data set [1], the “Human plasma protein binding (% free)” value was 19 % free. The half-maximal inhibitory concentration (IC50) in data set [4] worked out at 51 nM.
In the case of `Cc1c(OCCNCCC(F)F)ccc(F)c1[C@@H]1c2[nH]c3ccc(F)cc3c2C[C@@H](C)N1C[C@@H](C)C(=O)O` [Example 162, (R)-3-((1R,3R)-1-(3-(2-((3,3-difluoropropyl)amino)ethoxy)-6-fluoro-2-methylphenyl)-6-fluoro-3-methyl-1,3,4,9-tetrahydro-2H-pyrido[3,4-b]indol-2-yl)-2-methylpropanoic acid], the “Human plasma protein binding (% free)” value in data set [1] is 27 % free. In data set [2], the logD was determined as 1.8. This molecule showed a solubility at 24 h in data set [3] (setting [6]) greater than 1000 µM.
